Laboratory results reported in the NIST ThermoML archive (doi:10.1007/s10765-006-0056-z).
± gives the expanded uncertainty stated by the source.

Assay: molar heat capacity at constant volume; xn = mol fraction of the nth substance listed
Details: Fluid (supercritical or subcritical phases), Isochoric Heat Capacity Apparatus

CCCCCCCCCC [decane] + O=C=O
Details | molar heat capacity at constant volume [J/K/mol]
485.62 K, Mass density=375 kg/m3, x1 = 0.178 | 481.74 ± 9.7
486.19 K, Mass density=374.7 kg/m3, x1 = 0.095 | 337.46 ± 6.8
486.48 K, Mass density=201.8 kg/m3, x1 = 0.095 | 412.09 ± 8.3
486.76 K, Mass density=375 kg/m3, x1 = 0.178 | 484.88 ± 9.7
486.96 K, Mass density=131.5 kg/m3, x1 = 0.095 | 529.99 ± 11
486.96 K, Mass density=201.8 kg/m3, x1 = 0.095 | 409.43 ± 8.2
487.15 K, Mass density=155 kg/m3, x1 = 0.095 | 472.85 ± 9.4
487.15 K, Mass density=201.8 kg/m3, x1 = 0.095 | 398.22 ± 7.9
487.34 K, Mass density=155 kg/m3, x1 = 0.095 | 461.86 ± 9.2
487.53 K, Mass density=155 kg/m3, x1 = 0.095 | 453.38 ± 9.1
487.72 K, Mass density=155 kg/m3, x1 = 0.095 | 442.23 ± 8.9
487.96 K, Mass density=155 kg/m3, x1 = 0.095 | 446.71 ± 9
488.19 K, Mass density=155 kg/m3, x1 = 0.095 | 447.14 ± 9
488.49 K, Mass density=176.7 kg/m3, x1 = 0.095 | 436.9 ± 8.7
488.58 K, Mass density=176.7 kg/m3, x1 = 0.095 | 427.94 ± 8.5
488.68 K, Mass density=176.7 kg/m3, x1 = 0.095 | 434.18 ± 8.7
488.82 K, Mass density=339.4 kg/m3, x1 = 0.178 | 500.32 ± 10
488.87 K, Mass density=176.7 kg/m3, x1 = 0.095 | 431.72 ± 8.6
489.06 K, Mass density=176.7 kg/m3, x1 = 0.095 | 425.91 ± 8.5
489.44 K, Mass density=339.4 kg/m3, x1 = 0.178 | 498.78 ± 10
490.01 K, Mass density=408.8 kg/m3, x1 = 0.178 | 466.06 ± 9.3
490.58 K, Mass density=398.3 kg/m3, x1 = 0.095 | 337.25 ± 6.7
491.54 K, Mass density=281.4 kg/m3, x1 = 0.095 | 350.21 ± 7
493.44 K, Mass density=339.4 kg/m3, x1 = 0.178 | 492.82 ± 9.8
493.44 K, Mass density=375 kg/m3, x1 = 0.178 | 478.92 ± 9.6
493.63 K, Mass density=320.2 kg/m3, x1 = 0.095 | 344.98 ± 6.9
494.29 K, Mass density=339.4 kg/m3, x1 = 0.178 | 493.86 ± 9.9
494.39 K, Mass density=375 kg/m3, x1 = 0.178 | 481.74 ± 9.7
494.76 K, Mass density=87 kg/m3, x1 = 0.095 | 750.57 ± 15
494.95 K, Mass density=374.7 kg/m3, x1 = 0.095 | 342.85 ± 6.9
495.33 K, Mass density=176.7 kg/m3, x1 = 0.095 | 423.94 ± 8.5
495.52 K, Mass density=241 kg/m3, x1 = 0.095 | 368.51 ± 7.4
495.52 K, Mass density=408.8 kg/m3, x1 = 0.178 | 468.89 ± 9.3
496.56 K, Mass density=131.5 kg/m3, x1 = 0.095 | 548.39 ± 11
497.42 K, Mass density=310.8 kg/m3, x1 = 0.178 | 516 ± 10
497.51 K, Mass density=310.8 kg/m3, x1 = 0.178 | 512.93 ± 10
497.6 K, Mass density=310.8 kg/m3, x1 = 0.178 | 514.22 ± 10
499.87 K, Mass density=110.8 kg/m3, x1 = 0.095 | 615.07 ± 12
499.87 K, Mass density=155 kg/m3, x1 = 0.095 | 463.68 ± 9.3
500.06 K, Mass density=375 kg/m3, x1 = 0.178 | 479.47 ± 9.6
500.9 K, Mass density=310.8 kg/m3, x1 = 0.178 | 505.18 ± 10
500.9 K, Mass density=398.3 kg/m3, x1 = 0.095 | 339.7 ± 6.8
501.75 K, Mass density=310.8 kg/m3, x1 = 0.178 | 507.27 ± 10
502.88 K, Mass density=408.8 kg/m3, x1 = 0.178 | 473.26 ± 9.5
503.07 K, Mass density=339.4 kg/m3, x1 = 0.178 | 489.49 ± 9.8
503.82 K, Mass density=339.4 kg/m3, x1 = 0.178 | 492.32 ± 9.8
504.88 K, Mass density=284.3 kg/m3, x1 = 0.178 | 533.78 ± 11
505.5 K, Mass density=201.8 kg/m3, x1 = 0.095 | 397.32 ± 7.9
505.96 K, Mass density=284.3 kg/m3, x1 = 0.178 | 524.24 ± 11
506.25 K, Mass density=374.7 kg/m3, x1 = 0.095 | 343.97 ± 6.9
506.32 K, Mass density=284.3 kg/m3, x1 = 0.178 | 521.66 ± 10
507.56 K, Mass density=320.2 kg/m3, x1 = 0.095 | 346.42 ± 6.9
508.72 K, Mass density=284.3 kg/m3, x1 = 0.178 | 513.42 ± 10
509.65 K, Mass density=284.3 kg/m3, x1 = 0.178 | 513.42 ± 10
512.22 K, Mass density=339.4 kg/m3, x1 = 0.178 | 488.69 ± 9.8
512.4 K, Mass density=241 kg/m3, x1 = 0.095 | 370.11 ± 7.4
512.96 K, Mass density=339.4 kg/m3, x1 = 0.178 | 489.49 ± 9.8
513.52 K, Mass density=155 kg/m3, x1 = 0.095 | 469.92 ± 9.4
513.7 K, Mass density=176.7 kg/m3, x1 = 0.095 | 436.2 ± 8.7
514.1 K, Mass density=110.8 kg/m3, x1 = 0.095 | 628.94 ± 13
515.19 K, Mass density=281.4 kg/m3, x1 = 0.095 | 353.36 ± 7
515.37 K, Mass density=398.3 kg/m3, x1 = 0.095 | 347.33 ± 6.9
515.86 K, Mass density=131.5 kg/m3, x1 = 0.095 | 553.72 ± 11
516.11 K, Mass density=87 kg/m3, x1 = 0.095 | 740.97 ± 15
516.76 K, Mass density=83.3 kg/m3, x1 = 0.178 | 975.91 ± 19
517.48 K, Mass density=83.3 kg/m3, x1 = 0.178 | 984.15 ± 20
517.59 K, Mass density=374.7 kg/m3, x1 = 0.095 | 348.19 ± 7
517.68 K, Mass density=310.8 kg/m3, x1 = 0.178 | 496.69 ± 10
518.51 K, Mass density=310.8 kg/m3, x1 = 0.178 | 499.76 ± 10
519.25 K, Mass density=155 kg/m3, x1 = 0.095 | 471.73 ± 9.4
520.73 K, Mass density=117.8 kg/m3, x1 = 0.178 | 788.7 ± 16
521.28 K, Mass density=110.8 kg/m3, x1 = 0.095 | 622.54 ± 12
522.57 K, Mass density=320.2 kg/m3, x1 = 0.095 | 352.88 ± 7
523.12 K, Mass density=281.4 kg/m3, x1 = 0.095 | 355.33 ± 7.1
523.67 K, Mass density=164.2 kg/m3, x1 = 0.178 | 675.66 ± 14
524.03 K, Mass density=164.2 kg/m3, x1 = 0.178 | 667.67 ± 13
524.03 K, Mass density=201.8 kg/m3, x1 = 0.095 | 397.1 ± 7.9
524.22 K, Mass density=320.2 kg/m3, x1 = 0.095 | 351.33 ± 7
524.4 K, Mass density=164.2 kg/m3, x1 = 0.178 | 659.98 ± 13
524.77 K, Mass density=83.3 kg/m3, x1 = 0.178 | 982.86 ± 20
526.6 K, Mass density=117.8 kg/m3, x1 = 0.178 | 779.17 ± 16
528.43 K, Mass density=117.8 kg/m3, x1 = 0.178 | 775.54 ± 15
529.61 K, Mass density=164.2 kg/m3, x1 = 0.178 | 637.53 ± 13
529.71 K, Mass density=117.8 kg/m3, x1 = 0.178 | 768.84 ± 15
530.07 K, Mass density=164.2 kg/m3, x1 = 0.178 | 636.24 ± 13
530.25 K, Mass density=241 kg/m3, x1 = 0.095 | 375.44 ± 7.5
530.62 K, Mass density=164.2 kg/m3, x1 = 0.178 | 631.87 ± 13
530.67 K, Mass density=339.4 kg/m3, x1 = 0.178 | 492.82 ± 9.8
531.4 K, Mass density=339.4 kg/m3, x1 = 0.178 | 493.86 ± 9.9
532.44 K, Mass density=374.7 kg/m3, x1 = 0.095 | 354.69 ± 7.1
532.99 K, Mass density=87 kg/m3, x1 = 0.095 | 727.63 ± 14
533.17 K, Mass density=117.8 kg/m3, x1 = 0.178 | 758.57 ± 15
533.71 K, Mass density=155 kg/m3, x1 = 0.095 | 467.68 ± 9.3
534.08 K, Mass density=117.8 kg/m3, x1 = 0.178 | 754.94 ± 15
535.31 K, Mass density=131.5 kg/m3, x1 = 0.095 | 565.99 ± 11
535.39 K, Mass density=83.3 kg/m3, x1 = 0.178 | 958.14 ± 19
535.89 K, Mass density=164.2 kg/m3, x1 = 0.178 | 631.13 ± 13
536.16 K, Mass density=83.3 kg/m3, x1 = 0.178 | 972.28 ± 19
536.98 K, Mass density=83.3 kg/m3, x1 = 0.178 | 973.82 ± 19
536.98 K, Mass density=110.8 kg/m3, x1 = 0.095 | 693.49 ± 14
537.7 K, Mass density=320.2 kg/m3, x1 = 0.095 | 358.27 ± 7.1
538.25 K, Mass density=281.4 kg/m3, x1 = 0.095 | 361.63 ± 7.3
543.48 K, Mass density=201.8 kg/m3, x1 = 0.095 | 402.01 ± 8.1
543.48 K, Mass density=310.8 kg/m3, x1 = 0.178 | 509.05 ± 10
543.84 K, Mass density=176.7 kg/m3, x1 = 0.095 | 450.93 ± 9
544.11 K, Mass density=310.8 kg/m3, x1 = 0.178 | 514.46 ± 10
544.38 K, Mass density=284.3 kg/m3, x1 = 0.178 | 517.29 ± 10
546.37 K, Mass density=117.8 kg/m3, x1 = 0.178 | 758.81 ± 15
546.63 K, Mass density=83.3 kg/m3, x1 = 0.178 | 971.79 ± 19
547.62 K, Mass density=83.3 kg/m3, x1 = 0.178 | 992.89 ± 20
550.12 K, Mass density=87 kg/m3, x1 = 0.095 | 712.69 ± 14
550.12 K, Mass density=320.2 kg/m3, x1 = 0.095 | 360.72 ± 7.2
550.48 K, Mass density=281.4 kg/m3, x1 = 0.095 | 369.42 ± 7.4
550.84 K, Mass density=155 kg/m3, x1 = 0.095 | 462.13 ± 9.2
554.06 K, Mass density=164.2 kg/m3, x1 = 0.178 | 623.38 ± 12
556.37 K, Mass density=131.5 kg/m3, x1 = 0.095 | 553.72 ± 11
556.91 K, Mass density=83.3 kg/m3, x1 = 0.178 | 997.75 ± 20
559.75 K, Mass density=241 kg/m3, x1 = 0.095 | 388.83 ± 7.8
560.29 K, Mass density=281.4 kg/m3, x1 = 0.095 | 373.42 ± 7.5
561.17 K, Mass density=176.7 kg/m3, x1 = 0.095 | 448.69 ± 9
561.35 K, Mass density=320.2 kg/m3, x1 = 0.095 | 369.84 ± 7.4
568.43 K, Mass density=241 kg/m3, x1 = 0.095 | 393.53 ± 7.9
